pIC50: −log10 of the molar value.
Assays:
[1] = system: Raji cells; assay: Inhibition of TNF-α generation of human Raji cell induced by human IgM; format: cell-based; details: 10 μg/ml IgM stimulation, 24 hrs, ELISA
Experimental: Screening Test for a Drug on Inhibiting TNF-α Generation of Human Raji Cell Induced by Human IgM
• 1. Raji cell lines (source of human Burkitt's lymphoma) were employed. • 2. 1×10^5/well Raji cells were plated onto a 96-well cell culture plate. • 3. Compounds to be screened were diluted to the corresponding test concentrations and added into the cell culture system 30 minutes before IgM stimulation. • 4. 10 μg/ml IgM monoclonal antibody was added into the cell culture system to stimulate the cells generating TNF-α. • 5. 24 hrs later, the amount of TNF-α generated by the cell system was measured by ELISA method. • 6.

[2] = target: PI3Kα (Homo sapiens (Human), UniProt P42336); assay: PI3Kα enzyme activity inhibition IC50 evaluation assay; format: biochemical; details: ratio PI3Kα vs PI3Kδ
Chain of PI3Kα (P42336 whole entry): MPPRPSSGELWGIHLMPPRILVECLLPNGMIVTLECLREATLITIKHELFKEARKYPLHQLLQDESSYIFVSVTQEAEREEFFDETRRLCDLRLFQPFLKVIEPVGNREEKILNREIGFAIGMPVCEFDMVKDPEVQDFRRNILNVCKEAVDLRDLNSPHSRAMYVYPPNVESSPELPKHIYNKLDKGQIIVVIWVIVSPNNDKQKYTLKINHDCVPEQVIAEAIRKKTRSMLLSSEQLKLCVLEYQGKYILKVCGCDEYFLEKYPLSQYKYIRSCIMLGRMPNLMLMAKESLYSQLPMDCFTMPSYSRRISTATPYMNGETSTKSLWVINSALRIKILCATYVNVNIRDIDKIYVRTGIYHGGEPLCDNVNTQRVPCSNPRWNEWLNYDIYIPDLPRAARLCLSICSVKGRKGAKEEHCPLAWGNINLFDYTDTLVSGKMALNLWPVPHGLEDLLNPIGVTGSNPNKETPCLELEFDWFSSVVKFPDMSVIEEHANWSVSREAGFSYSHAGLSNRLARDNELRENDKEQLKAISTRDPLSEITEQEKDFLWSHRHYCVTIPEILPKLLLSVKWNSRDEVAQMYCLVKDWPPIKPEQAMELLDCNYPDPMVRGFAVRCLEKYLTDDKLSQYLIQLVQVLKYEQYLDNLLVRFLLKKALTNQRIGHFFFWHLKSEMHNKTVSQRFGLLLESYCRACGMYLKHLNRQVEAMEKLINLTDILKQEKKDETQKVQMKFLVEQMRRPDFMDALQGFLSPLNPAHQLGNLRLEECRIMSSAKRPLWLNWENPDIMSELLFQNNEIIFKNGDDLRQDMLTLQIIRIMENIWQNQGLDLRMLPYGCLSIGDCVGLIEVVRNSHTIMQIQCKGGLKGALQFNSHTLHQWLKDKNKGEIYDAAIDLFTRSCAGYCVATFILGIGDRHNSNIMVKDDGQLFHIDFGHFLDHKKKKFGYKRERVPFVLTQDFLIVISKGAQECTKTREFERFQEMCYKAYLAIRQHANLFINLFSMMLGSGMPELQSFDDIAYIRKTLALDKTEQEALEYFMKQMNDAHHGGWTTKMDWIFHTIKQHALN
Chain of PI3Kα (P27986 whole entry partner): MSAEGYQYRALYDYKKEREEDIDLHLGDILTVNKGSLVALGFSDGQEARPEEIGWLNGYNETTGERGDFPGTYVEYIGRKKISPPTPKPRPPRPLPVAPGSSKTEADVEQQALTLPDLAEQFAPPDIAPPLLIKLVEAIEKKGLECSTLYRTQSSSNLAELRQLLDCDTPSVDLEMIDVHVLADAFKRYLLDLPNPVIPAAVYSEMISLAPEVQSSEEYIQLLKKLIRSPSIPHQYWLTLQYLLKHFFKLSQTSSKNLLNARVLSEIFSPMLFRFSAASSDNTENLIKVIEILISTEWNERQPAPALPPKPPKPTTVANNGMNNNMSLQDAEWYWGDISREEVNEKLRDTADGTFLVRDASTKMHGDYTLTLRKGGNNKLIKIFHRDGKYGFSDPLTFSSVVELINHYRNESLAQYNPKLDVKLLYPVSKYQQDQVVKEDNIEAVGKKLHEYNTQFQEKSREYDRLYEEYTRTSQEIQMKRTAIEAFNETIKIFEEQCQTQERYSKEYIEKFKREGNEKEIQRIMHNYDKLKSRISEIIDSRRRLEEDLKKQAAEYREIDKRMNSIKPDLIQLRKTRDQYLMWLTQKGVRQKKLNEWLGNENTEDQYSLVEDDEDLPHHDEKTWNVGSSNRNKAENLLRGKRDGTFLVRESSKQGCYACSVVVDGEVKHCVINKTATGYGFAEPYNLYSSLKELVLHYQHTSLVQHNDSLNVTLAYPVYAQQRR
Experimental: (§1) PI3Kα, PI3Kδ, PI3Kβ and PI3Kγ Enzyme Activity Inhibition IC50 Evaluation Assay
(§2) • 1. Buffer preparation: 50 mM HEPES, pH 7.5, 3 mM MgCl2, 1 mM EGTA, 100 mM NaCl, 0.03% CHAPS. • 2. Compound was formulated in 100% DMSO in a concentration gradient, and added to a 384-well plate to a final DMSO concentration of 1%. • 3. PI3Kα, PI3Kδ, PI3Kβ and PI3Kγ enzymes were diluted to an optimum concentration with the following buffer: 50 mM HEPES, pH 7.5, 3 mM MgCl2, 1 mM EGTA, 100 mM NaCl, 0.03% CHAPS, 2 mM DTT, and transferred to a 384-well plate and incubated with the compound for a certain time. • 4. Substrate was diluted to an optimum concentration with the following buffer: 50 mM HEPES, pH 7.5, 3 mM MgCl2, 1 mM EGTA, 100 mM NaCl, 0.03% CHAPS, 2 mM DTT, 50 μM PIP2, 25 μM ATP; then added to a 384-well plate to initiate the reaction, and for PI3Kα, PI3Kβ and PI3Kγ at room temperature reacted for 1 hr, for PI3Kδ at room temperature reacted for 2 hrs. For PI3Kβ and PI3Kγ, it was still necessary to further add 10 μL ADP-Glo Detection Reagent, and then equilibrated at room temperature for 30 minutes. • 5. Read Luminescense with FlexStation, and calculate the inhibition rate as the average of two tests.

[3] = target: PI3Kδ (Homo sapiens (Human), UniProt O00329); assay: PI3Kδ enzyme activity inhibition IC50 evaluation assay; format: biochemical; details: luminescence, 25 μM ATP, 50 μM PIP2, 2 hrs room temperature
Chain of PI3Kδ (O00329 whole entry): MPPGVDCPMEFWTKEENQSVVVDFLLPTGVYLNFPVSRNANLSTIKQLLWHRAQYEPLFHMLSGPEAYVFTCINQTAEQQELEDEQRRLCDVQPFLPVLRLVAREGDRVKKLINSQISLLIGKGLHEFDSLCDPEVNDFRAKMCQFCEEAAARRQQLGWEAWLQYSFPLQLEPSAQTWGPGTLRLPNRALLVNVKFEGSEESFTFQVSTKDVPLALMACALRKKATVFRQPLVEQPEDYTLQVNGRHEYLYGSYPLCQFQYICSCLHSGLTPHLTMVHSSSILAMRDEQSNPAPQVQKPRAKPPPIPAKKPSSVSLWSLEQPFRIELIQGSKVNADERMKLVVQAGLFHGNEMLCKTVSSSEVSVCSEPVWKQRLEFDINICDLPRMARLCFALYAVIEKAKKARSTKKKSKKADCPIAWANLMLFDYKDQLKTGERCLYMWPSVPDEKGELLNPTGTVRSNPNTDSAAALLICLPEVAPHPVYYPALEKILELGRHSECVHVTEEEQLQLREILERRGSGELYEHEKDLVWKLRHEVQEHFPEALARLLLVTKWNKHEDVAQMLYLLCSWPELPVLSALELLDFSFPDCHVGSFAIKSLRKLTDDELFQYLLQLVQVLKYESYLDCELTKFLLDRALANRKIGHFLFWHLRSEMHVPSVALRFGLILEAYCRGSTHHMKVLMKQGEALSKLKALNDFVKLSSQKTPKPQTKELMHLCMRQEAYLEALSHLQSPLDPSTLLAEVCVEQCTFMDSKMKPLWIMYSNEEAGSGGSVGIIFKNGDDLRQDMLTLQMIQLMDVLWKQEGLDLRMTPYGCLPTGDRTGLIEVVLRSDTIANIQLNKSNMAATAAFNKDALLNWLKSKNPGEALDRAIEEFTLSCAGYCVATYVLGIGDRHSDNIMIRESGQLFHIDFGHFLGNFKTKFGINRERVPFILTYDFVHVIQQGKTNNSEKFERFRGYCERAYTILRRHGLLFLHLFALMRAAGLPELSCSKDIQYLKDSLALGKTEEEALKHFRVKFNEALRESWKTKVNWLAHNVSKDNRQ
Chain of PI3Kδ (P27986 whole entry partner): as the sequence (P27986 whole entry partner) above
Experimental: as §1
as §2, with “Substrate was diluted to an optimum concentration with the following buffer: 50 mM HEPES, pH 7.5, 3 mM MgCl2, 1 mM EGTA, 100 mM NaCl, 0.03% CHAPS, 2 mM DTT, 50 μM PIP2, 25 μM ATP; then added to a 384-well plate to initiate the reaction, and for PI3Kα, PI3Kβ and PI3Kγ at room temperature reacted for 1 hr, for PI3Kδ at room temperature reacted for 2 hrs.” left out

Row | SMILES | pIC50 ([1]; Homo sapiens) | α/δ selectivity [2] | pIC50 [3] | pIC50 [1]
1 | c1cc(-c2nc(N3CCOCC3)nc3c(CN4CCN(C5COC5)CC4)csc23)c2cc[nH]c2c1 [Compound 11] | – | >588 | 7.77 | 7.39
2 | CC(=O)N1CCN(Cc2csc3c(-c4cccc5[nH]ccc45)nc(N4CCOCC4)nc23)CC1 [Compound 14] | – | 700 | 8.42 | 7.59
3 | COc1ncc(-c2nc(N3CCOCC3)nc3c(CN4CCC(N5CC=CC5)CC4)c(C)sc23)cc1NS(C)(=O)=O [Compound 132] | – | 35 | 8.00 | –
4 | COc1ncc(-c2nc(N3CCOCC3)nc3c(CCN4CCCCC4)c(C)sc23)cc1NS(C)(=O)=O [Compound 135] | – | 226 | 8.20 | –
5 | COc1ncc(-c2nc(N3CCOCC3)nc3c(CN4CCc5ccccc5C4)c(C)sc23)cc1NS(C)(=O)=O [Compound 138] | – | 67 | 7.47 | –
6 | COc1ncc(-c2nc(N3CCOCC3)nc3c(CN4CCC(S(C)(=O)=O)CC4)c(C)sc23)cc1NS(C)(=O)=O [Compound 139] | – | 69 | 8.49 | –
7 | COc1ncc(-c2nc(N3CCOCC3)nc3c(CN4CCN(CC(C)(C)O)CC4)c(C)sc23)cc1NS(C)(=O)=O [Compound 142] | – | 60 | 8.43 | –
8 | COc1ncc(-c2nc(N3CCOCC3)nc3c(CN4CCc5sccc5C4)c(C)sc23)cc1NS(C)(=O)=O [Compound 143] | – | 107 | 7.49 | –
9 | COc1ncc(-c2nc(N3CCOCC3)nc3c(CN4CC(C(C)(C)O)C4)c(C)sc23)cc1NS(C)(=O)=O [Compound 151] | – | 41 | 7.82 | –

The next lines start with the values.

Row | pIC50 ([1]; Homo sapiens) | α/δ selectivity [2] | pIC50 [3] | pIC50 [1] | SMILES
10 | 7.53 | – | – | – | CC[C@H](Nc1ncnc2[nH]cnc12)c1nc2cccc(F)c2c(=O)n1-c1ccccc1 [CAL-101, idelalisib, reference compound]
11 | – | >400 | 7.60 | 7.55 | c1cc(-c2nc(N3CCOCC3)nc3c(CN4CCN(C5CCOCC5)CC4)csc23)c2cc[nH]c2c1 [Compound 10]
12 | – | 147 | 8.15 | 8.70 | COc1ncc(-c2nc(N3CCOCC3)nc3c(CN4CCC(C(C)(C)O)CC4)c(C)sc23)cc1NS(C)(=O)=O [Compound 60]
13 | – | 185 | 8.11 | – | COc1ncc(-c2nc(N3CCOCC3)nc3c(CN4CC[C@@H](N5CCC[C@H]5C)C4)c(C)sc23)cc1NS(C)(=O)=O [Compound 133]
14 | – | 188 | 8.40 | – | COc1ncc(-c2nc(N3CCOCC3)nc3c(CN4CC[C@@H](N5CCC[C@@H]5C)C4)c(C)sc23)cc1NS(C)(=O)=O [Compound 134]
15 | – | 268 | 8.11 | – | C=C1CCN(Cc2c(C)sc3c(-c4cnc(OC)c(NS(C)(=O)=O)c4)nc(N4CCOCC4)nc23)CC1 [Compound 136]
16 | – | 309 | 7.96 | – | COc1ncc(-c2nc(N3CCOCC3)nc3c(CN4CCC5(CC4)CC5)c(C)sc23)cc1NS(C)(=O)=O [Compound 137]
17 | – | 55 | 8.49 | – | COc1ncc(-c2nc(N3CCOCC3)nc3c(CN4CCN(C)C(=O)C4)c(C)sc23)cc1NS(C)(=O)=O [Compound 140]
18 | – | 120 | 8.05 | – | COc1ncc(-c2nc(N3CCOCC3)nc3c(CN4CC5CC5C4)c(C)sc23)cc1NS(C)(=O)=O (centres unmarked) [Compound 141]
19 | – | 56 | 8.47 | – | COc1ncc(-c2nc(N3CCOCC3)nc3c(CN4CCn5ccnc5C4)c(C)sc23)cc1NS(C)(=O)=O [Compound 144]
20 | – | 287 | 8.42 | – | COc1ncc(-c2nc(N3CCOCC3)nc3c(CN4CCC(OC(C)C)CC4)c(C)sc23)cc1NS(C)(=O)=O [Compound 145]
21 | – | 120 | 8.54 | – | COc1ncc(-c2nc(N3CCOCC3)nc3c(CN4CCC(N5CC(F)(F)C5)CC4)c(C)sc23)cc1NS(C)(=O)=O [Compound 146]
22 | – | 12 | 7.81 | – | COc1ncc(-c2nc(N3CCOCC3)nc3c(OC4CCOCC4)c(C)sc23)cc1NS(C)(=O)=O [Compound 152]

Reference: patent US9745321B2, “Fused pyrimidine compound, intermediate, preparation method therefor, and composition and application thereof” (SHANGHAI YINGLI PHARMACEUTICAL CO., LTD, priority 2013, dated 2017)
